Laboratory results published in patent US20240307409A1, “ARGININE METHYLTRANSFERASE INHIBITOR AND USE THEREOF” (Cytosinlab Therapeutics Co., Ltd., priority 2021, published 2024).

Experiments:
PRMT1 = PRMT1 (Homo sapiens, UniProt Q99873); assay: PRMT1 enzyme activity test; type: biochemical; conditions: 0.5 nM PRMT1, 3H-SAM, peptide
Protocol: PRMT1 enzyme activity test were performed in a buffer prepared on the same day 5 consisting of 10 mMTirs-HCl (pH=8.0), 0.01% Tween-20 and 1 mM DTT. The compounds were prepared to the highest inhibitor concentration ultimately required in the 100× reaction with 100% DMSO and then transferred to one well of a 384-well Echo plate (Echo-eligible 384-well polypropylene microplates 2.0, transparent, flat-bottomed) and sequentially diluted in the next well with a 3-fold dilution of 100% DMSO, and so on, with a total of 10 concentrations based on Precision. 100% DMSO was added to two empty wells to serve as control well without compound and control well without enzyme in the same 384-well Echo plate. 250 nL of compound was transferred from each well of the 384-well Echo plate to a 384-well assay plate (384-well polypropylene storage microplate) via the Echo 550 liquid processor. For wells with compounds and control well without compound, a mixture (15 uL) containing PRMT1 enzyme was added to the 384-well assay plate. For control wells without enzyme, the mixture containing the assay buffer (15 uL) was added instead. The compounds were allowed to incubate with PRMT1 for 15 minutes at room temperature, and then a mixture containing ^3H-SAM and peptide (10 uL) was added to start the reaction (final volume=25 uL). The final concentrations of the components were as follows: 0.5 nM for PRMT1, 0.25 uM for ^3H-SAM, 0.1 uM for the peptide, and 1% DMSO. After 120 min of incubation, the assay was terminated by the addition of non-radiolabeled SAM (5 uL) to a final concentration of 125 uM, which diluted 3H-SAM to a level at which its incorporation into the peptide substrate was no longer detected. 25 μL of the reaction solution from the 384-well assay plate was then transferred to a 384-well detection plate (Streptavidin FlashPlate HTS PLUS, high volume, 384 wells). The biotinylated peptide was allowed to bind to the surface of the antibiotic protein streptavidin for at least 60 minutes at room temperature. The Flashplate was then washed three times with 0.1% Tween-20 in a BioTek plate washer. Plates were read on a microplate counter (MicroBeta2) to measure the amount of ^3H-labeled peptide bound to the surface of the detection plate, measured in counts per minute (cpm).
The raw data were copied from the Reader and the inhibition values were calculated in Excel by Equation (1), Equation (1): Inh %=(CPMmax−CPMcmpd)/(CPMmax−CPMmin)*100, wherein the Max signal was obtained from the enzyme-substrate interaction and the Min signal was obtained from the substrate. IC50 values were obtained by fitting the data through equation (2) using XLFit add-in for Excel version […]. Equation (2): Y=Bottom+(Top-Bottom)/(1+((IC50/X)[…])), wherein, Y represents inhibition percentage and X represents compound concentration.

Toledo cells = assay: Toledo cell proliferation inhibition assay; type: cell-based; conditions: six-day assay, CellTiter-Glo
Protocol: • A. Purpose: to determine the effects of compounds on Toledo cells through a six-day cell proliferation assay. • B. Reagents and materials: • 1. Cell culture medium: RPMI 1640+10% FBS • 2. 384-well cell culture plate (Corning, item #3764) • 3. 0.4% Taipan Blue Staining Solution (Thermo Fisher, item #T10282) • 4. cell counting plate (Thermo Fisher, item #C10228) • 5. 50 ml reagent reservoir (Corning, item #4870) • 6. 50 ml conical sterile polypropylene centrifuge tube (Thermo Fisher, item #339653) • 7. Automatic cell counter (Thermo Fisher, item #AMQAX1000) • 8. CellTiter-Glo Luminescent Cell Viability Detection Reagent (Promega, item #G7572) • 9. SpectraMax i3x Multi-Mode Enzyme Labeling Instrument (Megaman Molecular Instruments, item #5024062) • C. Experimental method • 1. Resuspending the cells with a pipette. • 2. 0.4% Taipan blue staining solution and Toledo cells were mixed in equal proportion, and the cells were counted using an automatic cell counter. • 3. Toledo cells were diluted to a final concentration of 2000 cells per well and transferred to a 50 ml reagent reservoir. • 4. Diluted Toledo cells were added to a 384-well cell culture plate, 40 ul per well. • 5. The cells were shortly centrifuged and settled. • 6. The cells were incubated in a 37° C., 5% CO2 cell culture incubator. • 7. The substrate in the CellTiter-Glo Luminescent Cell Viability Detection Reagent was mixed with the solution. • 8. After six days, the 384-well cell culture plate was taken from the incubator and 20 ul of configured CellTiter-Glo reagent was added to each well. • 9. 384-well cell culture platewasmixed in an orbital shaker for 30 minutes. • 10. Signal of luminescence was detected with a SpectraMax i3x multi-mode enzyme labeling instrument.

Chain of PRMT1 (Q99873 whole entry): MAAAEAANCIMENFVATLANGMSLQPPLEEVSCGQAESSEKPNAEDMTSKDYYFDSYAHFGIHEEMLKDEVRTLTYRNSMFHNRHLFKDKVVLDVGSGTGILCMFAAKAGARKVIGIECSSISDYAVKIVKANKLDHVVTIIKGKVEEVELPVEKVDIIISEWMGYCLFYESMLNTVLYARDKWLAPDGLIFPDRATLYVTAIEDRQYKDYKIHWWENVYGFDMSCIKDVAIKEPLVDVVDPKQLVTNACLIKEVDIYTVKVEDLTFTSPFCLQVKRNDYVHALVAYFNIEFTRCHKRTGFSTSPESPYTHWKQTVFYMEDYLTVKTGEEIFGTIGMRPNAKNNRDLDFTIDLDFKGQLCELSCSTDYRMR

| SMILES | IC50 (PRMT1) | IC50 (Toledo cells; Homo sapiens, Toledo, 144 h) | IC50 (Toledo cells) |
| --- | --- | --- | --- |
| CNCCN(C)Cc1ccc(F)cc1C1CCc2ccc(C(F)(F)F)cc2CC1 (stereo not drawn) [P002] | < 50 nM |  |  |
| CNCCN(C)Cc1cc(F)ccc1C1CCN(CCc2ccc(C(F)(F)F)cc2)CC1 [P010] | < 50 nM | 1000 to 5000 nM |  |
| CCC1CC=C(c2ccccc2CN(C)CCNC)CC1 (stereo not drawn) [P016] | < 50 nM | < 1000 nM |  |
| CNCCN(C)Cc1ccccc1C1CCCCC1 [P024] | < 50 nM | < 1000 nM |  |
| CNCCN(C)Cc1ccc(F)cc1[C@H]1CC[C@@H](Oc2cc(C(F)(F)F)cc(C(F)(F)F)c2)CC1 [P026] | ≥ 500 nM |  |  |
| CNCCN(C)Cc1ccccc1C1CCN(C(C)C)CC1 [P027] | < 50 nM | 1000 to 5000 nM |  |
| CNCCN(C)Cc1ccccc1C1=CCN(C(C)C)CC1 [P028] | < 50 nM | ≥ 5000 nM |  |
| CNCCN(C)Cc1nc(C)ccc1C1CCN(CCc2ccc(C(F)(F)F)cc2)CC1 [P034] | < 50 nM | < 1000 nM |  |
| CNCCN(C)Cc1nc(C)ccc1C1CCc2cc(F)c(F)cc2CC1 [P036] | < 50 nM | < 1000 nM |  |
| CNCCN(C)Cc1ccc(C)nc1C1CCc2cc(F)c(F)cc2CC1 [P038] | < 50 nM | < 1000 nM |  |
| CNCCN(C)Cc1ccccc1C1CCC2(CC1)CC(C)(C)CO2 (stereo not drawn) [P040] | < 50 nM |  | < 1000 nM |
| CNCCN(C)Cc1ccccc1C1=CCC2(CC1)CC(C)(C)CO2 (stereo not drawn) [P042] | < 50 nM | < 1000 nM |  |
| CNCCN(C)Cc1ccc2ncccc2c1C1=CCN(c2cccc(C)c2)CC1 [P047] | < 50 nM | 1000 to 5000 nM |  |
| CCOC[C@H]1CC[C@@H](c2ccccc2CN(C)CCNC)CC1 [P048] | < 50 nM | < 1000 nM |  |
| CNCCN(C)Cc1ccccc1C1=CCC2(CCCCO2)CC1 (stereo not drawn) [P055] | < 50 nM | 1000 to 5000 nM |  |
| CNCCN(C)Cc1ccc(C)nc1C1CCN(c2cc(C)c(F)cc2F)CC1 [P062] | < 50 nM |  |  |
| CNCCN(C)Cc1ncccc1C#Cc1cccc(C)c1 [P091] | ≥ 500 nM |  |  |
| CNCCN(C)Cc1ncccc1C1CCN(C)CC1 [P152] | < 50 nM |  |  |
| CNCCN(C)Cc1ncccc1C1CCN(C(=O)C(C)C)CC1 [P235] | < 50 nM |  |  |
| CNCCN(C)Cc1ncccc1C1CCN(C(C)(C)O)CC1 [P244] | < 50 nM |  |  |
| CNCCN(C)Cc1ncccc1C1CCOCC1 [P245] | < 50 nM |  |  |

| SMILES | IC50 (PRMT1) | IC50 (Toledo cells; Homo sapiens, Toledo, 144 h) | IC50 (Toledo cells) |
| --- | --- | --- | --- |
| CNCCN(C)Cc1ncccc1C1CCCOC1 (stereo not drawn) [P246] | ≥ 500 nM |  |  |
| CNCCN(C)Cc1ncccc1C1CCCCO1 (stereo not drawn) [P247] | 50 to 500 nM |  |  |
| CNCCN(C)Cc1ncccc1C1CCN(CCOCCOCCOCCOCCOCCN2CCC(c3cccnc3CN(C)CCNC)CC2)CC1 [P257] | < 50 nM |  |  |
| CNCCN(C)Cc1ncccc1N1CCC(OCCOC)CC1 [P274] | < 50 nM |  |  |
| CNCCN(C)Cc1ncccc1C1CCN(c2ccnnc2)CC1 [P289] | < 50 nM |  |  |
| CNCCN(C)Cc1ncccc1N1CCC(O)CC1 [P294] | < 50 nM |  |  |
| CNCCN(C)Cc1ncccc1N1CCc2ccc(S(C)(=O)=O)cc2CC1 [P295] | < 50 nM |  |  |
| CNCCN(C)Cc1ncccc1C1CCN(c2ccc(C(N)=O)cc2)CC1 [P299] | < 50 nM |  |  |
| CNCCN(C)Cc1ncccc1N1CCC(OCC(=O)NC)CC1 [P322] | < 50 nM |  |  |
| NCCCCc1ccccc1N1CCc2cc(F)c(F)cc2CC1 [P350] | ≥ 500 nM |  |  |
| CNCCN(C)C(C)c1ccccc1N1CCc2cc(F)c(F)cc2CC1 (stereo not drawn) [P351] | 50 to 500 nM |  |  |
| CNCCN(C)Cc1ccc(NC(=O)NC)nc1C1CCN(c2cccc(C)c2)CC1 [P353] | < 50 nM |  |  |
| CNCCN(C)Cc1ccc(Nc2ncc[nH]2)nc1C1CCN(c2cccc(C)c2)CC1 [P355] | < 50 nM |  |  |
| CNCCN(C)Cc1ccc(NS(C)(=O)=O)nc1C1CCN(c2cccc(C)c2)CC1 [P357] | 50 to 500 nM |  |  |
| CNCCN(C)Cc1nc(N)cnc1C1CCN(c2cccc(C)c2)CC1 [P359] | 50 to 500 nM |  |  |
| CNCCN(C)Cc1ccc(NCCNCC(=O)OC)nc1C1CCN(c2cccc(C)c2)CC1 [P362] | 50 to 500 nM |  |  |
| CNCCN(C)Cc1ccc(NC(=O)N(C)C)nc1C1CCN(c2cccc(C)c2)CC1 [P363] | 50 to 500 nM |  |  |
| CNCCN(C)Cc1ccc(NS(=O)(=O)N(C)C)nc1C1CCN(c2cccc(C)c2)CC1 [P365] | 50 to 500 nM |  |  |
| CCOC(=O)c1cnc(Nc2ccc(CN(C)CCNC)c(C3CCN(c4cccc(C)c4)CC3)n2)[nH]1 [P367] | < 50 nM |  |  |
| Cc1cccc(N2CCC(c3nc(N)cnc3CN(C)CCN(C)C)CC2)c1 [P368] | 50 to 500 nM |  |  |
| Cc1cccc(N2CCC(c3nc(N)cnc3CN(C)CCN)CC2)c1 [P369] | < 50 nM |  |  |

Continued, in another order:

| IC50 (PRMT1) | SMILES | IC50 (Toledo cells; Homo sapiens, Toledo, 144 h) | IC50 (Toledo cells) |
| --- | --- | --- | --- |
| < 50 nM | CNCCN(C)Cc1cc(F)ccc1[C@H]1CC[C@@H](c2cccc(C)c2)CC1 [P006] | 1000 to 5000 nM |  |
| < 50 nM | CNCCN(C)Cc1ccc(F)cc1C1CCc2ccccc2CC1 [P011] | < 1000 nM |  |
| < 50 nM | CNCCN(C)Cc1ccc(F)cc1C1CCN(CCc2ccccc2)CC1 [P012] | < 1000 nM |  |
| < 50 nM | CCc1cccc(N2CCC(c3cc(F)ccc3CN(C)CCNC)CC2)c1 [P013] | 1000 to 5000 nM |  |
| < 50 nM | CNCCN(C)Cc1ccc(F)cc1C1CCCN(c2ccccc2)CC1 (stereo not drawn) [P017] | 1000 to 5000 nM |  |
| < 50 nM | CNCCN(C)Cc1cc(F)ccc1C1CCN(c2cccc(C)c2)CC1 [P020] | < 1000 nM |  |
| < 50 nM | CNCCN(C)Cc1ccccc1N1CCc2ccccc2C1 [P029] |  |  |
| < 50 nM | CNCCN(C)Cc1ccc(F)cc1N1CCCN(c2ccccc2)CC1 [P030] | ≥ 5000 nM |  |
| < 50 nM | CCC1CCN(c2ccccc2CN(C)CCNC)CC1 [P031] | 1000 to 5000 nM |  |
| ≥ 500 nM | CNCCN(C)Cc1ccc(F)cc1N1CCC(Oc2cc(C(F)(F)F)cc(C(F)(F)F)c2)CC1 [P032] |  |  |
| < 50 nM | CNCCN(C)Cc1ccccc1N1CCCCC1 [P033] | 1000 to 5000 nM |  |
| 50 to 500 nM | CNCCN(C)Cc1ccccc1N1CCC(N(C)C)CC1 [P035] | ≥ 5000 nM |  |
| < 50 nM | CNCCN(C)Cc1nc2ccccc2cc1C1CCN(c2cccc(C)c2)CC1 [P046] | 1000 to 5000 nM |  |
| < 50 nM | CNCCN(C)Cc1ccc(-c2ncc[nH]2)cc1C1CCN(c2cccc(C)c2)CC1 [P154] |  |  |
| 50 to 500 nM | CNCCN(C)Cc1ccc(=O)[nH]c1C1CCN(c2cccc(C)c2)CC1 [P211] |  |  |
| 50 to 500 nM | CNCCN(C)Cc1cc(C(N)=O)ccc1C1CCN(c2cccc(C)c2)CC1 [P220] |  |  |
| 50 to 500 nM | CNCCN(C)Cc1ccc2nncn2c1C1CCN(c2cccc(C)c2)CC1 [P232] |  |  |
| < 50 nM | CNCCN(C)Cc1ccc2[nH]nnc2c1C1CCN(c2cccc(C)c2)CC1 [P265] |  |  |
| 50 to 500 nM | CNCCN(C)Cc1ccc(OC)nc1C1CCN(c2cccc(C)c2)CC1 [P352] |  |  |
| 50 to 500 nM | CNCCN(C)Cc1ccc(Nc2ccc(F)cc2)nc1C1CCN(c2cccc(C)c2)CC1 [P354] |  |  |
| < 50 nM | CNCCN(C)Cc1ccc(NC)nc1C1CCN(c2cccc(C)c2)CC1 [P358] |  |  |
| 50 to 500 nM | CNCCN(C)Cc1ccc(N2CCOC2=O)nc1C1CCN(c2cccc(C)c2)CC1 [P360] |  |  |
| < 50 nM | CNCCN(C)Cc1ccc(CN2CCCC2)nc1C1CCN(c2cccc(C)c2)CC1 [P361] |  |  |
| < 50 nM | CNCCN(C)Cc1ccc(Nc2nc3ccccc3[nH]2)nc1C1CCN(c2cccc(C)c2)CC1 [P366] |  |  |
